According to PubChem BioAssay AID1508591:

settings: rat; liver microsomes; pH 7.4; 15.0 min; 1.0 µM

Row | SMILES | half-life [min]
1 | Cc1cc(-c2nnc3n2CCCCC3)c(C)n1-c1cccc(Cl)c1 | 1.95
2 | CN(C)CCOc1ccc(C(=C(CCCl)c2ccccc2)c2ccccc2)cc1 | > 30
3 | Cc1cnc(-c2ccccc2C2COC2)nc1NCC1CCN(c2cccnc2)CC1 | > 30
4 | Cn1ncnc1[C@H]1c2n[nH]c(=O)c3cc(F)cc(c23)N[C@@H]1c1ccc(F)cc1 | > 30
5 | Cc1ccc(S(=O)(=O)Nc2ccc(C(=O)Nc3nc(-c4ccccc4)cs3)c(Cl)c2)cc1 | 23
6 | CCCc1c(CC)c(=N)c2ccccc2n1C | > 30
7 | COc1ccc(C(=O)Nc2nc(-c3ccccc3)cs2)cc1NS(=O)(=O)c1ccc(C)cc1 | 13
8 | O=c1c2ccccc2nc(/C=C/c2cccnc2)n1Cc1ccccc1 | 8.99
9 | CC[C@@]1(O)C(=O)OCc2c1cc1n(c2=O)Cc2c-1nc1cc(F)c(C)c3c1c2[C@@H](N)CC3 | > 30
10 | CSc1cccc(NC(=O)CC[C@H]2O[C@@H]3O[C@]4(C)CC[C@H]5[C@H](C)CC[C@@H]([C@@H]2C)[C@@]35OO4)c1 | 2.3
11 | CC(C)N(CCCNC(=O)Nc1ccc(C(C)(C)C)cc1)C[C@H]1O[C@@H](n2cc(Br)c3c(N)ncnc32)[C@H](O)[C@H]1O | 2.47
12 | O=c1cc(-c2ccccc2)oc2cc(O)cc(O)c12 | 1.92
13 | O=C(O)c1cnc(-c2ccc(F)cc2)nc1-c1ccncc1 | > 30
14 | CC(=O)N1CCc2cc(-c3nc(NC(=O)Cc4ccc5c(c4)OCO5)sc3C)ccc21 | 20
15 | O=c1c(-c2cccs2)ccc2n1C[C@H]1C[C@@H]2CN(C2CCOCC2)C1 | 14.6
16 | CCN1C(=O)c2ccccc2[S@](=O)c2ccc(C(=O)NCc3ccc(F)cc3)cc21 | 12
17 | Cc1cnc(CNc2nc(-c3cccc(NS(C)(=O)=O)c3)nc3ccccc23)cn1 | 21
18 | COc1ccccc1C(=O)Nc1nnc(SCc2cc(=O)c3ccccc3[nH]2)s1 | 7.49
19 | CO[C@@H]1/C=C\O[C@@]2(C)Oc3c(C)c(O)c4c(c3C2=O)C(=N[C@H]2CC[C@H](O)O[C@@H]2C)C=C(NC(=O)/C(C)=C\C(=O)[C@@H]2C[C@@H]2[C@@H](O)[C@H](C)[C@@H](O)[C@H](C)[C@H](OC(C)=O)[C@@H]1C)C4=O | 9.93
20 | CC1=C[C@@H](CN2C(=O)C(C)=C(C)C2=O)[C@H](C(C)C)C[C@H]1Cc1nc2c(C)cccc2[nH]1 | 1.3
21 | COc1cccc(CN(C)c2ccc([S+](=O)([O-])Nc3nccs3)cc2)c1O | > 30
22 | O=C(Nc1nc(-c2ccc(Cl)s2)cs1)c1cccs1 | 19.5
23 | Brc1ccc(-c2csc(N3CCNCC3)n2)cc1 | 3.31
24 | Cc1c(-c2cccc(NC(=O)c3ccc(F)c(F)c3)c2)nc2ncccn12 | 12.6
25 | CNCc1ccc(-c2cc(-c3nc(-c4ccc(S(=O)(=O)C(C)C)cc4)cnc3N)on2)cc1 | > 30

Row | SMILES | half-life [min]
26 | CCNC(=O)c1coc(COc2ccc3c(c2)C(c2ccc(F)cc2)N(C(=O)CC(C)C)CC3)n1 (centres undefined) | 1.55
27 | O=C(Nc1ccc2c(N3CCOCC3)ncnc2c1)c1cccc(Br)c1 | 10.1
28 | COc1cccc(CNc2ccc(C(=O)Nc3nccs3)cc2)c1O | > 30
29 | NC(=O)C1CCN(c2nc(-c3ccc(OCc4ccccc4)cc3)cs2)CC1 | 18.3
30 | Cc1sc(NC(=O)Cc2ccc3c(c2)OCO3)nc1-c1ccc2c(c1)CCN2C(=O)c1ccccc1Cl | 24
31 | O=C(c1nc(-c2cccnc2)c2ccccn12)N1CCOCC1 | > 30
32 | COc1ccc(-n2nc(C3CCN(C(=O)c4ccccc4)CC3)[nH]c2=O)cc1 | > 30
33 | COc1ccc(S(=O)(=O)N(CC(=O)Nc2ccc(C)cc2)c2ccc(C)cc2)cc1OC | 3.28
34 | CCc1ccc(NC(=O)[C@H](Cc2c[nH]c3ccccc23)NC(=O)[C@@H]2Cc3ccccc3CN2)cc1 | 2.32
35 | CC(=O)c1c(C)[nH]c(C(=O)Nc2cccc([S+](=O)([O-])Nc3ccc(C#N)cc3)c2)c1C | > 30
36 | c1ccc(-c2nnc3n2NC(c2ccc4c(c2)OCO4)S3)cc1 (centres undefined) | > 30
37 | Cc1ccc(-c2nn(C(C)(C)C)c3ncnc(N)c23)cc1 | 4.87
38 | COc1cccc(CNc2ccc(S(=O)(=O)Nc3nccs3)cc2)c1O | > 30
39 | Cc1ccc(S(=O)(=O)Nc2cnccc2C(=O)Nc2ccccc2)cc1 | 2.6
40 | Nc1ccccc1CNc1ccc(S(=O)(=O)Nc2nccs2)cc1 | > 30
41 | CN(C)CCNC(=O)c1nc(-c2ccccc2)cc2[nH]ccc12 | 1.92
42 | Fc1ccc(CNc2ncnc3onc(-c4ccc(F)cc4)c23)cc1 | 28
43 | Brc1ccccc1-c1nc(NCc2ccc(-c3cccnc3)cc2)c2ccccc2n1 | 6.55
44 | Cc1cc(N)c2cc(NC(=O)Nc3ccc4nc(C)cc(N)c4c3)ccc2n1 | > 30
45 | CC(C)Oc1ccc(CNC(=O)C2CCN(C(=O)N3CCOc4ccc(Cl)cc43)CC2)cc1 | 9.17
46 | COc1cc2c(cc1OC)C(C[C@H]1CN(S(=O)(=O)c3cccc(C#N)c3)CC[C@H]1CC(=O)O)=NCC2 | > 30
47 | Cc1cc(C)nc(NC(=S)N2CCN(c3ccc(Cl)cc3F)CC2)c1 | > 30
48 | Cc1cc(F)ccc1S(=O)(=O)Nc1cnccc1C(=O)Nc1nc(-c2ccccc2)cs1 | 20
49 | O=C(Cc1ccc(Cl)cc1)Nc1cnccc1C(=O)O | > 30
